In patent US20070117743A1, “New antitumoral compounds” (priority 2003, published 2007):

Experiments:
Assay type in all cases: cell-based, human
[1] = system: A-549; assay: SRB colorimetric assay of cell growth and viability, A-549; conditions: 48 hours exposure; for GI50: read-out: GI50 A-549; for CC50: read-out: LC50 A-549
[2] = system: SK-MEL-28; assay: SRB colorimetric assay of cell growth and viability, SK-MEL-28; conditions: 48 hours exposure; for CC50: read-out: LC50 MEL-28
[3] = system: HT-29; assay: SRB colorimetric assay of cell growth and viability, HT-29; conditions: 48 hours exposure; for GI50: read-out: GI50 HT-29; for CC50: read-out: LC50 HT-29
[4] = system: LoVo; assay: SRB colorimetric assay of cell growth and viability, LoVo; conditions: 48 hours exposure; for CC50: read-out: LC50 LOVO
[5] = system: DU-145; assay: SRB colorimetric assay of cell growth and viability, DU-145; conditions: 48 hours exposure
[6] = system: LNCaP; assay: SRB colorimetric assay of cell growth and viability, LNCaP; conditions: 48 hours exposure; for GI50: read-out: GI50 LN-caP; for CC50: read-out: LC50 LN-caP
Excerpt: The finality of this assay is to interrupt the growth of a “in vitro” tumor cell culture by means a continued exhibition of the cells to the sample to be testing.
This form of the assay employs 96 well cell culture microplates of 9 mm diameter (Faircloth, 1988; Mosmann, 1983). Most of the cell lines are obtained from American Type Culture Collection (ATCC) derived from different human cancer types.
Cells are maintained in RPMI 1640 10% FBS, supplemented with 0.1 g/l penicillin and 0.1 g/l streptomycin sulfate and then incubated at 37° C., 5% CO2 and 98% humidity. For the experiments, cells were harvested from subconfluent cultures using trypsin and resuspended in fresh medium before plating.
Cells are seeded in 96 well microtiter plates, at 5×10^3 cells per well in aliquots of 195 μL medium, and they are allowed to attach to the plate surface by growing in drug free medium for 18 hours. Afterward, samples are added in aliquots of 5 μL in a ranging from 10 to 10^−8 μg/mL, dissolved in DMSO:EtOH:PBS (0.5:0.5:99). After 48 hours exposure, the antitumor effect are measured by the SRB methodology: cells are fixed by adding 50 μL of cold 50% (wt/vol) trichloroacetic acid (TCA) and incubating for 60 minutes at 4° C. Plates are washed with deionized water and dried. One hundred μL of SRB solution (0.4% wt/vol in 1% acetic acid) is added to each microtiter well and incubated for 10 minutes at room temperature. Unbound SRB is removed by washing with 1% acetic acid. Plates are air dried and bound stain is solubilized with Tris buffer. Optical densities are read on a automated spectrophotometric plate reader at a single wavelength of 490 nm.
The values for mean+/− SD of data from triplicate wells are calculated. Some parameters for cellular responses can be calculated: GI=growth inhibition, TGI=total growth inhibition (cytostatic effect) and LC=cell killing (cytotoxic effect).

[7] = system: SK-BR-3; assay: SRB colorimetric assay of cell growth and viability, SK-BR-3; conditions: 48 hours exposure
[8] = system: IGROV-1; assay: SRB colorimetric assay of cell growth and viability, IGROV-1; conditions: 48 hours exposure
[9] = system: IGROV-ET; assay: SRB colorimetric assay of cell growth and viability, IGROV-ET; conditions: 48 hours exposure; for CC50: read-out: LC50 IGROV-ET
[10] = system: HeLa; assay: SRB colorimetric assay of cell growth and viability, HeLa; conditions: 48 hours exposure; for CC50: read-out: LC50 HELA
[11] = system: HeLa-APL; assay: SRB colorimetric assay of cell growth and viability, HeLa-APL; conditions: 48 hours exposure; for CC50: read-out: LC50 HELA-APL
[12] = system: K-562; assay: SRB colorimetric assay of cell growth and viability, K-562; conditions: 48 hours exposure; for CC50: read-out: LC50 K-562
[13] = system: PANC-1; assay: SRB colorimetric assay of cell growth and viability, PANC-1; conditions: 48 hours exposure; for CC50: read-out: LC50 PANC-1

Compound	TGI A-549 [1] [Molar]	GI50 [1] [nM]	GI50 [2] [nM]	TGI MEL-28 [2] [Molar]	TGI HT-29 [3] [Molar]	GI50 [3] [nM]	GI50 [4] [nM]	TGI LOVO [4] [Molar]	GI50 [5] [nM]	TGI DU-145 [5] [Molar]	TGI LN-caP [6] [Molar]	GI50 [6] [nM]	GI50 [7] [nM]	TGI SK-BR-3 [7] [Molar]	GI50 [8] [nM]	TGI IGROV [8] [Molar]	GI50 [9] [nM]	TGI IGROV-ET [9] [Molar]	GI50 [10] [nM]	TGI HELA [10] [Molar]	other results
C/C=C1\NC(=O)[C@H](Cc2ccccc2)NC(=O)[C@@H](C(C)C)NC(=O)[C@@H]([C@@H](C)CC)NC(=O)[C@H](NC(=O)[C@H](NC(=O)[C@H](CCCN)NC(=O)[C@H]2CCCN2C(=O)[C@H](NC(=O)[C@@H](NC(=O)[C@@H](NC(=O)[C@H](NC(=O)c2ccc(C)cc2)C(C)C)[C@@H](C)O)C(C)C)C(C)C)[C@@H](C)CC)[C@@H](C)OC(=O)[C@H](C(C)C)NC1=O [Compound 19, [p-MeBza^14]-KF]	1.71E−06	775	1160	2.24E−06	1.12E−06	314	120	2.35E−07	775	1.73E−06	2.55E−06	1020	170	3.77E−07	343	1.37E−06	439	1.44E−06	849	1.95E−06	GI50 [11]: 923 nM; TGI HELA-APL [11]: 2.00E−06 Molar; GI50 [12]: 762 nM; TGI K-562 [12]: 2.01E−06 Molar; GI50 [13]: 2060 nM
C/C=C1\NC(=O)[C@H](Cc2ccccc2)NC(=O)[C@@H](C(C)C)NC(=O)[C@@H]([C@@H](C)CC)NC(=O)[C@H](NC(=O)[C@H](NC(=O)[C@H](CCCN)NC(=O)[C@H]2CCCN2C(=O)[C@H](NC(=O)[C@@H](NC(=O)[C@@H](NC(=O)[C@H](NC(=O)c2ccccc2)C(C)C)[C@@H](C)O)C(C)C)C(C)C)[C@@H](C)CC)[C@@H](C)OC(=O)[C@H](C(C)C)NC1=O [Compound 20, [Bza^14]-KF]	1.95E−06	952	1200	2.26E−06	1.64E−06	694	128	3.03E−07	939	1.99E−06	2.87E−06	1180	320	1.16E−06	714	1.73E−06	755	1.78E−06	1110	2.30E−06	CC50 [1]: 3970 nM; CC50 [2]: 4230 nM; CC50 [3]: 3880 nM; CC50 [4]: 810 nM; LC50 (concentration causing 50% net cell kill) [5]: 4250 nM; CC50 [6]: 6800 nM; LC50 [7]: 3380 nM; LC50 (concentration causing 50% net cell killing) [8]: 4200 nM; CC50 [9]: 4200 nM; CC50 [10]: 4760 nM; GI50 [11]: 1010 nM; TGI HELA-APL [11]: 2.08E−06 Molar; CC50 [11]: 4270 nM; GI50 [12]: 305 nM; TGI K-562 [12]: 2.12E−06 Molar; CC50 [12]: 6800 nM; GI50 [13]: 3790 nM; TGI PANC-1 [13]: 6.80E−06 Molar; CC50 [13]: 6800 nM
C/C=C1\NC(=O)[C@H](Cc2ccccc2)NC(=O)[C@@H](C(C)C)NC(=O)[C@@H]([C@@H](C)CC)NC(=O)[C@H](NC(=O)[C@H](NC(=O)[C@H](CCCN)NC(=O)[C@H]2CCCN2C(=O)[C@H](NC(=O)[C@@H](NC(=O)[C@@H](NC(=O)[C@H](NC(=O)c2ccc(C(F)(F)F)cc2)C(C)C)[C@@H](C)O)C(C)C)C(C)C)[C@@H](C)CC)[C@@H](C)OC(=O)[C@H](C(C)C)NC1=O [Compound 21, [p-CF3Bza^14]-KF]	4.06E−07	146	897	1.85E−06	2.59E−07	114	91.7	1.92E−07	241	1.22E−06	1.30E−06	339	111	2.46E−07	177	7.22E−07	169	7.61E−07	319	1.28E−06	CC50 [1]: 1680 nM; CC50 [2]: 3800 nM; CC50 [3]: 585 nM; CC50 [4]: 404 nM; LC50 (concentration causing 50% net cell kill) [5]: 3280 nM; CC50 [6]: 3520 nM; LC50 [7]: 543 nM; LC50 (concentration causing 50% net cell killing) [8]: 3450 nM; CC50 [9]: 2830 nM; CC50 [10]: 3910 nM; GI50 [11]: 504 nM; TGI HELA-APL [11]: 1.48E−06 Molar; CC50 [11]: 3670 nM; GI50 [12]: 6500 nM; TGI K-562 [12]: 6.50E−06 Molar; CC50 [12]: 6500 nM; GI50 [13]: 1300 nM; TGI PANC-1 [13]: 3.11E−06 Molar; CC50 [13]: 6500 nM
C/C=C1\NC(=O)[C@H](Cc2ccccc2)NC(=O)[C@@H](C(C)C)NC(=O)[C@@H]([C@@H](C)CC)NC(=O)[C@H](NC(=O)[C@H](NC(=O)[C@H](CCCN)NC(=O)[C@H]2CCCN2C(=O)[C@H](NC(=O)[C@@H](NC(=O)[C@@H](NC(=O)[C@H](NC(=O)Cc2cc(F)cc(F)c2)C(C)C)[C@@H](C)O)C(C)C)C(C)C)[C@@H](C)CC)[C@@H](C)OC(=O)[C@H](C(C)C)NC1=O [Compound 22, [3,5-dFPhAc^14]-KF]	2.16E−06	1170	2500	6.58E−06	1.94E−06	888	288	1.06E−06	1430	6.58E−06	6.58E−06	1640	464	1.45E−06	980	2.12E−06	1070	2.32E−06	1290	3.28E−06	CC50 [1]: 3990 nM; CC50 [2]: 6580 nM; CC50 [3]: 4250 nM; CC50 [4]: 3110 nM; LC50 (concentration causing 50% net cell kill) [5]: 6580 nM; CC50 [6]: 6580 nM; LC50 [7]: 3640 nM; LC50 (concentration causing 50% net cell killing) [8]: 4570 nM; CC50 [9]: 5010 nM; CC50 [10]: 6580 nM; GI50 [11]: 1960 nM; TGI HELA-APL [11]: 6.58E−06 Molar; CC50 [11]: 6580 nM; GI50 [12]: 6580 nM; TGI K-562 [12]: 6.58E−06 Molar; CC50 [12]: 6580 nM; GI50 [13]: 5450 nM; TGI PANC-1 [13]: 6.58E−06 Molar; CC50 [13]: 6580 nM
